The data set in a line: precipitation test for drug-containing mixture solutions. The settings on record: mixture solution containing crosslinked temperature-responsive viscous solution (DDK Gel: poloxamer and crosslinked alginate), FIG. 7. It is filed as physicochemical. From the text:
In FIG. 7, DDK Gel means a gel composed of poloxamer and crosslinked alginate.

Take `CC(C)Cc1ccc(C(C)C(=O)O)cc1` (centres unmarked) [ibuprofen]: the precipitate formation entry is “formed a precipitate”.

For gentamicin, the precipitate formation entry is “sodium alginate was precipitated”.

The record behind these values is patent US20200086049A1, “Kit For Treating or Relieving Pain at Incision Site Following Surgical Procedure” (GENEWEL CO., LTD., priority 2017, published 2020).
